Consider five compounds from patent US10258621B2, “Methods and compositions for treating HIV-related disorders” (CHDI Foundation, Inc., priority 2014, dated 2019).

“Also recorded” adds a separate entry of the source.

One test deals with T1, KMO (Homo sapiens, UniProt O15229).
T1 construct: GST; His; expressed in transfected cells; host or cells: CHO (CHO-GST HIS KMO cell line)
The test is described as follows: KMO inhibition: L-kynurenine hydroxylation to 3OH-KYN monitored by LC/MS. The test is classed as biochemical. As to conditions: 10 μM compound. As for the experimental part: A generalized procedure for monitoring L-Kynurenine (KYN) hydroxylation to form product 3-Hydroxy-Kynurenine (3OH—KYN) by LC/MS is described below. Product is quantified by multiple reaction monitoring using MS.
IC50's are calculated using automated fitting algorithm (A+ Analysis)
A method of monitoring L-Kynurenine (KYN) hydroxylation to form product 3-Hydroxy-Kynurenine (3OH—KYN) by LC/MS is described below. Product is quantified by multiple reaction monitoring.
• Compound: Stock concentrations: 10 mM in 100% DMSO • Enzyme: KMO enzyme prepared at Evotec via mitochondria isolation from CHO-GST HIS KMO cells • Substrate: L-Kynurenine (Sigma: Cat#K3750) • [stock concentration: 10 mM in 100 mM potassium phosphate buffer, pH 7.4]
IC50's are calculated using automated fitting algorithm (A+ Analysis).
A method of monitoring L-Kynurenine (KYN) hydroxylation to form 3-Hydroxy-Kynurenine (3OH—KYN) by LC/MS is described. Product is quantified by multiple reaction monitoring (MRM method).

Test [1] relates to extracellular levels of KYN, KYNA, 3-OH-KYN, AA and QA in the striatum. The test is described as follows: Microdialysis after PO dosing of kynurenine, Compound 6 or both: extracellular KP metabolites in striatum. As to conditions: 30 mg/kg p.o., dosed alone; WT mice. The class given is in vivo, adult male WT mice. On the procedure: (§1) Animals were anesthetized using isoflurane (2%, 800 mL/min O2). Bupivacain/epinephrine was used for local analgesia, finadyne or carprophen for peri-/post-operative analgesia. The animals were placed in a stereotaxic frame (Kopf instruments, USA). I-shaped probes (membrane: polyacrylonitrile, 3 mm exposed surface; Brainlink, the Netherlands) were inserted in the striatum. After surgery, animals were kept individually in cages; provided food and water ad libitum.
(§2) Experiments were performed one day after surgery. On the day of the experiment, the probes of the animals were connected with flexible PEEK tubing to a microperfusion pump (Harvard PHD 2000 Syringe pump, Holliston, Mass. or similar). The I-shaped microdialysis probes were perfused with aCSF containing 147 mM NaCl, 3.0 mM KCl, 1.2 mM CaCl2 and 1.2 mM MgCl2, at a flow rate of 1.5 μL/min. Microdialysis samples were collected at 20-minute intervals by an automated fraction collector (820 Microsampler, Univentor, Malta or similar) into mini-vials already containing 10 μL 0.02 M formic acid (FA) and 0.04% ascorbic acid in ultrapurified H2O. At t=−30 min vehicle or KMO inhibitor were be administered, to ensure central and peripheral inhibition of KMO at the time of administration of kynurenine. At t=0 vehicle or kynurenine were administered. Microdialysate samples were collected for 240 min after administration of kynurenine. All the dialysis samples were stored at −80° C. awaiting their analysis. Dialysate levels of any or all of KP metabolites KYN, KYNA, 3-OH—KYN, AA and QA were quantified by LC-MS/MS at by Brains On-Line. After the experiment, the mice were sacrificed and terminal brain (striatum+cortex), liver, kidney, plasma and CSF samples were collected for analysis of KP metabolites. Levels of KP metabolites were measured in terminal brain (striatum+cortex), liver, kidney, plasma and CSF samples at Brains On-Line. Finally, levels of kynurenine and KMO inhibitors in dose formulation samples were quantified by Brains On-Line.
A method of examining the pharmacodynamic effects of kynurenine (30 mg/kg, p.o.) and Compound 6 (30 mg/kg, p.o.) on extracellular levels of KYN, KYNA, 3-OH—KYN, AA and QA in the striatum (STR) of adult male WT mice either co-dosed or dosed independently is disclosed.
Furthermore, PO administration of Compound 6 blocks toxic metabolites 3-OH—KYN (see FIG. 10) and QA (see FIG. 11), whereas kynurenine dosing increases them, due to kynurenine catabolism in mice brain.

Test [2] relates to KP metabolites (KYN, KYNA, AA, 3-HK) via KMO inhibition. Nature of the test: Microdialysis after PO dosing at various dosage levels: KP metabolites in striatum extracellular space. The class given is in vivo. As to conditions: PO 3, 10 or 30 mg/kg; mouse striatum microdialysis. On the procedure:
as §1, §2
A method of examining the modulation of KYN, KYNA, AA, and 3-HK via KMO inhibition with Compound 6 in striatum extracellular space is disclosed. […] Following the microdialysis procedure described herein, dialysate levels of KP metabolites KYN, KYNA, 3-HK, and AA were quantified by LC-MS/MS at by Brains On-Line.

The subject of another test is KP metabolite KYNA. Nature of the test: Microdialysis after PO dosing in WT and HD (Q175_KI homozygous) animals: KYNA in striatum. The test is classed as in vivo, mouse. As to conditions: PO 3 mg/kg or 10 mg/kg. As for the experimental part: as §1
Experiments were performed one day after surgery. On the day of the experiment, the probes of the animals were connected with flexible PEEK tubing to a microperfusion pump (Harvard PHD 2000 Syringe pump, Holliston, Mass. or similar). […] Dialysate levels of any or all of KP metabolites KYN, KYNA, 3-OH—KYN, AA and QA were quantified by LC-MS/MS at by Brains On-Line. […] Levels of KP metabolites were measured in terminal brain (striatum+cortex), liver, kidney, plasma and CSF samples at Brains On-Line. Finally, levels of kynurenine and KMO inhibitors in dose formulation samples were quantified by Brains On-Line.
A method of examining the modulation of KP metabolites in HD animals similar to WT controls is disclosed. […] Following the microdialysis procedure described herein, dialysate levels of KP metabolite KYNA was quantified by LC-MS/MS at by Brains On-Line. […]

In test [3] the target is NMDA receptor NR2A subunit (Homo sapiens, UniProt Q12879). As to conditions: NMDA receptor agonist; cited from earlier work.
Test [4] has as its target NMDA receptor NR2B subunit (Homo sapiens, UniProt Q13224). As to conditions: NMDA receptor agonist; cited from earlier work.

T1 sequence (O15229 whole entry): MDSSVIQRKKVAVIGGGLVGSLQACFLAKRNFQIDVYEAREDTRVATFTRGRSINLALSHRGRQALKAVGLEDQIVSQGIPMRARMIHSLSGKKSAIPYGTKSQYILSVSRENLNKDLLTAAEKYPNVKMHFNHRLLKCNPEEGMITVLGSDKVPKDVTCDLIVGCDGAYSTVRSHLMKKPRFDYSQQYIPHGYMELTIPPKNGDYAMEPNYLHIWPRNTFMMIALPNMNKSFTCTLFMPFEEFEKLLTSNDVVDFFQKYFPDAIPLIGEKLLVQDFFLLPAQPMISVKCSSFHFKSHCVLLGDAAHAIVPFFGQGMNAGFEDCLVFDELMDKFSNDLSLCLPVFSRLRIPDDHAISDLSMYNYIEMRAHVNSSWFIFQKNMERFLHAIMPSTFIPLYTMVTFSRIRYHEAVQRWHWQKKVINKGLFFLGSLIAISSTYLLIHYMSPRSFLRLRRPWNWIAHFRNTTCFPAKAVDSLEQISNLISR
Chain of NMDA receptor NR2B subunit (Q13224 27-1484, other chains not shown): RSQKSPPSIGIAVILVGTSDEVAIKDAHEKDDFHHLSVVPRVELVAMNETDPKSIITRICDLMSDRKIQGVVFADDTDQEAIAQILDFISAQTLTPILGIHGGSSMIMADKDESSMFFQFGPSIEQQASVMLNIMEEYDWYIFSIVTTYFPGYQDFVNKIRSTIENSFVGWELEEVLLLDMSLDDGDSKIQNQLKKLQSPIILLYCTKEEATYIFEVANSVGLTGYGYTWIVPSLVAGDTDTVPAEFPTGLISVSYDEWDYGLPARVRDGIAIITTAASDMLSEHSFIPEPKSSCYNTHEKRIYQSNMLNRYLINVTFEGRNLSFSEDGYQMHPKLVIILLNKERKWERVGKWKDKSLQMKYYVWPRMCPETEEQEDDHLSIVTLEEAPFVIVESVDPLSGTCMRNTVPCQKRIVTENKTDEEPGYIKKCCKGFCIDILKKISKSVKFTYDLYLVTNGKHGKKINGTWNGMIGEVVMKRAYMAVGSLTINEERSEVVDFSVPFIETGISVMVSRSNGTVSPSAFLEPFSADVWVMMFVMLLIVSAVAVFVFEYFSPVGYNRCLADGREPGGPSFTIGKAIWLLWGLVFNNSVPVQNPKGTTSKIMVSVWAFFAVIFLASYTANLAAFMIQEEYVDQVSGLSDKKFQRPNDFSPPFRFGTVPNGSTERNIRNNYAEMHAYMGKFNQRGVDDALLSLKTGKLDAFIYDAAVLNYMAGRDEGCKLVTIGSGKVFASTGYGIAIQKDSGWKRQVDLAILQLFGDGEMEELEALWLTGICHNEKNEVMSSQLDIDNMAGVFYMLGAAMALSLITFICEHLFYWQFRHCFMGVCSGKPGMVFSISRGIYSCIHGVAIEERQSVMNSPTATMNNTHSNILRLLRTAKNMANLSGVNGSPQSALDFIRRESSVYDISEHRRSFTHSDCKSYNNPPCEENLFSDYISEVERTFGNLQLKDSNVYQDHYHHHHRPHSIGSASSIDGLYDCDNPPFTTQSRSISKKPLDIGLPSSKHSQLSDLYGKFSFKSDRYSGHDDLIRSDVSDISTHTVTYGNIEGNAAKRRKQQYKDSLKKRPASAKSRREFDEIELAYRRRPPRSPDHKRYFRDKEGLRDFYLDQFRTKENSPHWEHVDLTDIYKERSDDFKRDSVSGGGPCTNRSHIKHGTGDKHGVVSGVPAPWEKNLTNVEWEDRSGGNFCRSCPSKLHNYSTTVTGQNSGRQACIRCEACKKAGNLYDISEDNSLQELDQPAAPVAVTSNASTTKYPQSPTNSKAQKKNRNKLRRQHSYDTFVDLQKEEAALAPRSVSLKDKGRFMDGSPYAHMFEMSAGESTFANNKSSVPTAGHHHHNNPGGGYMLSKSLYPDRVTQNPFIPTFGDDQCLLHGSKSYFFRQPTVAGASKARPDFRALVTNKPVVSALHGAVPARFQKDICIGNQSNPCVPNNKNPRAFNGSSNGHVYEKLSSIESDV
Chain of NMDA receptor NR2A subunit (Q12879 23-1464, other chains not shown): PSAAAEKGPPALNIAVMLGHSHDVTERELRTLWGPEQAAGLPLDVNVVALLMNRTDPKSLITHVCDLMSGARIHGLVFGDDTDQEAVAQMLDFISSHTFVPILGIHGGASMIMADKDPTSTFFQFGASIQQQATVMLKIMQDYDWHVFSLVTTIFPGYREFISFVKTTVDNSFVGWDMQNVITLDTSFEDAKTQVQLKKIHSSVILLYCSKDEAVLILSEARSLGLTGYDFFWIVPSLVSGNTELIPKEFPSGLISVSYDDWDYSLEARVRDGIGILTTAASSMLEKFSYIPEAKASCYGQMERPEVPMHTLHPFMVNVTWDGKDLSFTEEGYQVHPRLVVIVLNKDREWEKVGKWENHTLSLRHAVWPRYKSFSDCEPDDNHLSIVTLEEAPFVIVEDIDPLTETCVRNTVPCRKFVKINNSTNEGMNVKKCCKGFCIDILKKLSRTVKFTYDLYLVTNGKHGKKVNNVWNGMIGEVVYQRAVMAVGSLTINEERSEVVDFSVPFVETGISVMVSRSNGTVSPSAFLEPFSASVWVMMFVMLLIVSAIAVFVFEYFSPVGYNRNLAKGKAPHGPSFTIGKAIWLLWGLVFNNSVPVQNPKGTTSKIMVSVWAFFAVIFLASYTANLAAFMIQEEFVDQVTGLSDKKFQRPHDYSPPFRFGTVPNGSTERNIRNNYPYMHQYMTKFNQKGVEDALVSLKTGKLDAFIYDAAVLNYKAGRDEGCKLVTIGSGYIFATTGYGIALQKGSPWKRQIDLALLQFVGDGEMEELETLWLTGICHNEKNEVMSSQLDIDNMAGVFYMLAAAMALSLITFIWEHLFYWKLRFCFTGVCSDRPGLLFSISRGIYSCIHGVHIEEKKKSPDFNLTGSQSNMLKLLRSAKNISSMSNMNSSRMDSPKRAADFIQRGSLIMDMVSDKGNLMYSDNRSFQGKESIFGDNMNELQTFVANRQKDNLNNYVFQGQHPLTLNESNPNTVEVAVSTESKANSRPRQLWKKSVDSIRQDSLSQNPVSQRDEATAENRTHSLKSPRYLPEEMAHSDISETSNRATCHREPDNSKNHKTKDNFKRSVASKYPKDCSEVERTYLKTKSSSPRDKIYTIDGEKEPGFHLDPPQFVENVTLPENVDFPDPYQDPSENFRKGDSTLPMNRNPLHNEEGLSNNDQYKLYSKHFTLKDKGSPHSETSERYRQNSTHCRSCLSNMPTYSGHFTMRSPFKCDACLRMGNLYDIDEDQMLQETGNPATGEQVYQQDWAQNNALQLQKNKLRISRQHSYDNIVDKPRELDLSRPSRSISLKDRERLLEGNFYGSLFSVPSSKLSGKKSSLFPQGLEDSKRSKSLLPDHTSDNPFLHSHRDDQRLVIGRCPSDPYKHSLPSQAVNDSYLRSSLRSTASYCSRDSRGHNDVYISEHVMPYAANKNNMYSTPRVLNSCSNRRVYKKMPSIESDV

Take `O=C(O)c1cc(-c2ccc(OC3CC3)c(Cl)c2)ncn1` [Compound 6, 6-(3-chloro-4-cyclopropoxyphenyl)pyrimidine-4-carboxylic acid]: on KMO, testing at 10 µM gave an inhibition of 100%. For the same compound, in test [1], the 3-OH-KYN in striatum entry is recorded as “blocks”, the AA in striatum result was “increases”, the KYN in striatum entry is reported as “increases” and the KYNA in striatum result is on record as “increases”. For the same compound, the QA in striatum result in test [1] is listed as “blocks”. For the same compound, in test [2], the “3-HK in striatum extracellular space” value is reported as “insufficient modulation; also recorded: little or no effect”, the “AA in striatum extracellular space” value is reported as “dose dependent increases”, the “KYN in striatum extracellular space” value was “dose dependent increases” and the “KYNA in striatum extracellular space” value is on record as “dose dependent increases”. In the test with KP metabolite KYNA (Q175_KI homozygous (HD) mice), the “KP metabolite KYNA in striatum, HD mice” value is reported as “dose dependent increase; also recorded: increases”. Further, the “KP metabolite KYNA in striatum, WT mice” value in the test on KP metabolite KYNA (wild type mice) was “dose dependent increase; also recorded: increases”.

On to `CC[C@H](C)Oc1ccc(-c2cc(C(=O)O)ncn2)cc1Cl` [Compound 4, (S)-6-(4-sec-butoxy-3-chlorophenyl)pyrimidine-4-carboxylic acid], for which the inhibition (as a rule, the share of the control response that was lost under treatment) at 10 µM against KMO came out at 100%.

In the case of `O=C(O)c1cccnc1C(=O)O` [QUIN, quinolinic acid], the “affinity for NR2A subunit” value in test [3] was 7 to 10 µmol. The “affinity for NR2B subunit” value in test [4] is 100 µmol.

For `Nc1ccccc1C(=O)CC(N)C(=O)O` (stereo not drawn) [kynurenine, reference compound], in test [1], the 3-OH-KYN in striatum entry is “increases”, the AA in striatum entry is given as “little or no effect”, the KYN in striatum entry was “little or no effect” and the KYNA in striatum result was “little or no effect”. In test [1], the QA in striatum entry is on record as “increases”.

For the compound `CC[C@@H](C)Oc1ccc(-c2cc(C(=O)O)ncn2)cc1Cl` [Compound 5, (R)-6-(4-sec-butoxy-3-chlorophenyl)pyrimidine-4-carboxylic acid], the inhibition at 10 µM at KMO is 100%.
